Assays:
[1] = comparative antimicrobial activity in various foodstuff or media (summary table); set-up: key: + means antimicrobial activity, multiple + indicates increased antimicrobial activity; ++: multiple + indicates increased antimicrobial activity; +++: multiple + indicates increased antimicrobial activity; − means no antimicrobial activity
[2] = test system: C. botulinum Toxin type A (proteolytic) spores; assay type: cell-based, Clostridium botulinum; conditions: pH 5.5
[3] = test system: C. botulinum Toxin type B (proteolytic) spores; assay type: cell-based, Clostridium botulinum; conditions: pH 5.5
[4] = test system: C. botulinum Toxin type B (non-proteolytic) spores; assay type: cell-based, Clostridium botulinum; conditions: pH 5.5
[5] = test system: C. botulinum Toxin type E spores; assay type: cell-based, Clostridium botulinum; conditions: pH 5.5
[6] = test system: all tested C. botulinum strains (spores); assay type: cell-based, Clostridium botulinum
[7] = test system: C. botulinum 33A (proteolytic) vegetative cells; assay type: cell-based, Clostridium botulinum; conditions: pH 5.5
[8] = test system: C. botulinum 53B (proteolytic) vegetative cells; assay type: cell-based, Clostridium botulinum; conditions: pH 5.5
[9] = test system: C. botulinum Alaska E (non-proteolytic) vegetative cells; assay type: cell-based, Clostridium botulinum; conditions: pH 5.5
[10] = test system: C. botulinum Beluga E (Non-proteolytic) vegetative cells; assay type: cell-based, Clostridium botulinum; conditions: pH 5.5
[11] = test system: all strains of C. botulinum tested (vegetative cells); assay type: cell-based, Clostridium botulinum
[12] = test system: C. botulinum Alaska E vegetative cells; assay type: cell-based, Clostridium botulinum
[13] = test system: C. botulinum Beluga E vegetative cells; assay type: cell-based, Clostridium botulinum
[14] = test system: C. botulinum E mixed strains vegetative cells; assay type: cell-based, Clostridium botulinum
[15] = test system: Lactococcus lactis subsp. cremoris; assay type: cell-based
[16] = test system: Lactococcus lactis subsp. cremoris; assay type: cell-based; remark: listed apart in the source
Lactobacillus plantarum = assay type: cell-based
[17] = test system: Lactococcus lactis subsp. cremoris; assay type: cell-based; remark: listed apart in the source
[18] = standard plate well diffusion assay of RTD beverage; assay type: cell-based

ε-poly-L-lysine
antimicrobial activity ([1]; BHI broth): − | antimicrobial activity ([1]; Beverages): + | antimicrobial activity ([1]; Brain heart infusion agar (BHI)): − | antimicrobial activity ([1]; Green beans packed in water): − | antimicrobial activity ([1]; Hot dogs): − | antimicrobial activity ([1]; Savory cream): − | Inhibition zone against indicator C. botulinum strain Toxin type A (proteolytic) [2]: 0 mm | Inhibition zone against indicator C. botulinum strain Toxin type B (proteolytic) [3]: 0 mm | Inhibition zone against indicator C. botulinum strain Toxin type B (non-proteolytic) [4]: 0 mm | Inhibition zone against indicator C. botulinum strain Toxin type E [5]: 0 mm | inhibition of growth of C. botulinum from spores (in words) [6]: unable to inhibit the growth of C. botulinum from spores | Inhibition zone against indicator C. botulinum strain 33A (proteolytic) [7]: 0 mm | Inhibition zone against indicator C. botulinum strain 53B (proteolytic) [8]: 0 mm | Inhibition zone against indicator C. botulinum strain Alaska E (non-proteolytic) [9]: 0 mm | Inhibition zone against indicator C. botulinum strain Beluga E (Non-proteolytic) [10]: 0 mm | inhibition of growth of C. botulinum strains from vegetative cells (in words) [11]: did not show clear or strong inhibition | Inhibition zone against indicator C. botulinum strain Alaska E [12]: 0 mm | Inhibition zone against indicator C. botulinum strain Beluga E [13]: 0 mm | Inhibition zone against indicator C. botulinum E mixed strains [14]: 0 mm | Inhibition zone [15]: 0 mm | effect on apparent nisin activity (in words) [16]: significantly increased | inhibition of growth of L. plantarum (in words) (Lactobacillus plantarum): very limited inhibition on the initial growth of L. plantarum | Apparent nisin activity [17]: 0 IU/g | effect on measurable nisin activity in dairy product (in words) [17]: increased the measurable nisin activity | effect on apparent nisin activity in RTD beverage (in words) ([18]; very low levels of ε-poly-L-lysine (50 ppm) added to nisin 250 IU/ml): significantly increased | Inhibition zone ([18]; ε-poly-L-lysine 50 ppm alone, fruit juice-containing RTD beverage): 0 mm

Reference: US20060257539A1 (priority 2005, published 2006)
